Measurements from publication PMC5522529, “Mechanisms of Paradoxical Activation of AMPK by the Kinase Inhibitors SU6656 and Sorafenib” (Cell Chemical Biology, 2017).

How the values were obtained:
AMPK = AMPK activity in HeLa cells stably expressing LKB1; assay type: cell-based, human; details: HeLa cells expressing LKB1, 100 μM, 1 hr
Procedure: Figure 1 SU6656 Activates AMPK but Not AMPK-Related Kinases (A) HEK293 cells were incubated with the indicated concentrations of SU6656 or berberine (300 μM) for 1 hr; total AMPK activity was assayed in immunoprecipitates (top; mean ± SEM, n = 4), and phosphorylation of AMPK (Thr172), ACC (Ser80), and Raptor (Ser792) analyzed by western blotting (bottom; n = 2). (B) HEK293 cells were incubated with 100 μM SU6656 (1 hr), AMPK complexes containing α1, α2, β1, and β2 immunoprecipitated using isoform-specific antibodies, and AMPK activity measured (mean ± SEM, n = 4). (C) HeLa cells stably expressing LKB1 ([Fogarty et al., 2010]) were incubated with 100 μM SU6656 for 1 hr, AMPK or individual ARKs immunoprecipitated, and kinase assays carried out (antibodies that distinguish MARK2/MARK3 were not available, so they were assayed together). Results are means ± SEM (n = 2). In all panels, asterisks indicate significant differences from controls without SU6656. *p < 0.05, **p < 0.01, ****p < 0.0001. […]

AMPK-α1 AT mutant = molecular target: T1, AMPK-α1 AT mutant (Homo sapiens, UniProt Q13131, A167T); test: AMPK activity of FLAG-tagged AMPK-α1 AT mutant expressed in HEK293 cells; assay type: cell-based; details: AT mutant FLAG-α1, 1 hr
T1 construct: we expressed FLAG-tagged full-length AMPK-α1 either as the WT or the AT mutant; expressed in transfected cells; host or cells: HEK293 (transient transfection)
T1 sequence (Q13131 whole entry A167T): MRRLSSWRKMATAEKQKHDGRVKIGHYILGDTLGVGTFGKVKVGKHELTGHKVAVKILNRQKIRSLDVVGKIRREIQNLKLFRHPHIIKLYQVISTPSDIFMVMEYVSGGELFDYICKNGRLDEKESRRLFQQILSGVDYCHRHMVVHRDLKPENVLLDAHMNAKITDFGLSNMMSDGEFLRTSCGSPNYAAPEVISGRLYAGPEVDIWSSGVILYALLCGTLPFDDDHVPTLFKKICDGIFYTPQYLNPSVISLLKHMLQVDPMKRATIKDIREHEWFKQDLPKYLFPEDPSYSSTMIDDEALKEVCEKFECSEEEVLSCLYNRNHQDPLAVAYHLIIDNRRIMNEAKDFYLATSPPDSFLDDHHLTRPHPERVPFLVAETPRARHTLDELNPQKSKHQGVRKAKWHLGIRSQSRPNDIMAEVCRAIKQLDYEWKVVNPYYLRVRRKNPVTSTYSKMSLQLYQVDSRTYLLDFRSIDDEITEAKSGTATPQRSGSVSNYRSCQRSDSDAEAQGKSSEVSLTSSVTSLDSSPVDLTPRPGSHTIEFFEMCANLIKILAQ
T1 sequence (P54619 whole entry partner): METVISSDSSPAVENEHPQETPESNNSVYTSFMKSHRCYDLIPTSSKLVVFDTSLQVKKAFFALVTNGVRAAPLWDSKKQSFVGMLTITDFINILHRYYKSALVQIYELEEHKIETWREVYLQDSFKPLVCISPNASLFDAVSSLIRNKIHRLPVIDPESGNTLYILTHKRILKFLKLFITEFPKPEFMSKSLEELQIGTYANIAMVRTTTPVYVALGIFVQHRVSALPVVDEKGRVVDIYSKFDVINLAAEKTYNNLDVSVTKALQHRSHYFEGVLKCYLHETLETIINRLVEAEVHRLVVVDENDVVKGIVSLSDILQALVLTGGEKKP
Description: The α1-KD was precipitated using anti-FLAG and endogenous AMPK complexes using anti-α1 antibody, and activity determined. Results (mean ± SD, n = 2) are expressed relative to activities in DMSO controls. (B) Western blots (n = 2) using the indicated antibodies; samples from experiment in (A). (C) DNAs encoding FLAG-tagged AMPK-α1 (WT or AT mutant) were expressed by transient transfection in HEK293 cells, the cells treated with increasing concentrations of SU6656 for 1 hr, AMPK complexes precipitated with anti-FLAG, and activity measured. Results (mean ± SD, n = 3) are expressed relative to the DMSO control. […] Results (mean ± SD, n = 3) are expressed relative to the DMSO control. **p < 0.01, ***p < 0.001, ****p < 0.0001, ^†††p < 0.001; ns, not significant.
To confirm that it acted by binding at the catalytic site, we expressed FLAG-tagged full-length AMPK-α1 either as the WT or the AT mutant.

α2-KD = molecular target: T2, α2-KD (Homo sapiens, UniProt P54646); test: Inactivation of α2-KD by PP2Cα; assay type: biochemical; details: 5 mM ATP, AMP 2 mM, SU6656 up to 10 μM
T2 construct: amplifying residues 1-310 with 5' BamH1 and 3' Xho1 sites; made in house; host or cells: bacteria
T2 sequence (P54646 1-310): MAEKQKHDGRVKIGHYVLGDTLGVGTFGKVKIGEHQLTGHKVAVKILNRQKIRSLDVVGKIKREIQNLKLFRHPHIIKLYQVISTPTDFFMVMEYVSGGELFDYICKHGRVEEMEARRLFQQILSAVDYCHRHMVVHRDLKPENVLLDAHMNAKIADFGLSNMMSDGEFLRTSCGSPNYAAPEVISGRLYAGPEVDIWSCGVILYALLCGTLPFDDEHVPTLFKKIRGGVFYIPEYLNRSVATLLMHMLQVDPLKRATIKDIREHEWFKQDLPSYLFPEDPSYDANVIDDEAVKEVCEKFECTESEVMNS
Procedure: Figure 5 SU6656 Promotes AMPK Activation by Binding to the Catalytic Site: Studies in Cell-Free Assays (A) Effect of increasing concentrations of SU6656 ± 1 mM AMP in the presence of 2 mM ATP on the activity of purified rat liver AMPK. (B) Effect of ATP concentration on kinase activity of α2-KD in the presence of increasing concentrations of SU6656. Results (mean, n = 2) were fitted to the equation Y= (Vmax × X)/(Km × (1 + I/Ki) + X), where Y is the activity, X is the ATP concentration, I is the concentration of SU6656, and Ki is the inhibitory constant for SU6656. The curves were generated using this equation with the best-fit values of Vmax, Km, and Ki (shared between all four curves) quoted in the main text. (C) Inhibition of phosphorylated α2-KD (WT or AT mutant) by SU6656. […] The reduced inhibition at 10 μM SU6656 may be due to the inhibitor coming out of solution, so those data were not used for curve fitting. (D and E) Effect of increasing concentrations of SU6656 on activity (D) and Thr172 phosphorylation (E) induced by LKB1 with unphosphorylated α2-KD (WT/AT mutant). Results in (D) are mean ± SEM (n = 3); and were fitted to same equation as Figure 4C. […] The complexes (which have low basal phosphorylation due to lack of LKB1 in HeLa cells) were incubated with or without a limiting amount of LKB1, AMP (200 μM) or SU6656 (3 μM) for 10 min and AMPK activity determined. […]

AMPK activity (AMPK-α1 AT mutant): greatly reduced
protection against inactivation by PP2Cα (α2-KD): did not protect against inactivation
SMILES: CN(C)S(=O)(=O)c1ccc2c(c1)/C(=C/c1cc3c([nH]1)CCCC3)C(=O)N2 [SU6656]
AMPK activity (AMPK): robustly activated AMPK
